Common to all, as to format: biochemical
For one experiment, the target named is ALR (Homo sapiens, UniProt P55789). Description: Amplex Red-HRP sulfhydryl oxidase assay.
Another experiment concerns the target T1, Erv1 (Saccharomyces cerevisiae, UniProt P27882).
T1 sequence (P27882 1-189): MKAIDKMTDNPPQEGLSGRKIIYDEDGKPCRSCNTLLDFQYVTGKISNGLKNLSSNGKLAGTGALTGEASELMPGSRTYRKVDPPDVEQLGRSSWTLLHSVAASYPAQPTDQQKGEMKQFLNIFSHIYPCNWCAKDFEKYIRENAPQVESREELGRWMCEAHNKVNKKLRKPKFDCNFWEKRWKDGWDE
Description: Amplex Red-HRP sulfhydryl oxidase assay with recombinant Erv1.

The target of a further experiment is T2, Erv2 (Saccharomyces cerevisiae, UniProt Q12284).
T2 sequence (Q12284 1-196): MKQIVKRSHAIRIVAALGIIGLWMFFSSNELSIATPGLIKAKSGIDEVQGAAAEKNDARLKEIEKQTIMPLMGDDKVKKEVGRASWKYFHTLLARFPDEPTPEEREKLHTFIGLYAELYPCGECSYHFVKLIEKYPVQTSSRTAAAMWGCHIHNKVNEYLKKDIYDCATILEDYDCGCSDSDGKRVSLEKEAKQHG
Briefly: Amplex Red-HRP sulfhydryl oxidase assay.

Experimental findings from article PMC3726224 (Developmental cell, 2013) are described below.

The structures appear in SMILES notation.

As a reminder, the IC50 is the concentration at which inhibition is half-maximal.

ALR, sequence (P55789 whole entry): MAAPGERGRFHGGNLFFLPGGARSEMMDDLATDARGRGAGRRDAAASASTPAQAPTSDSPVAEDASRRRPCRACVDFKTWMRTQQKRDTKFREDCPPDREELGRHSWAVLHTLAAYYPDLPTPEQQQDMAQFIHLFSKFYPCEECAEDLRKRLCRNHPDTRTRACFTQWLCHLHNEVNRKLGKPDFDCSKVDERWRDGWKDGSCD

Consider `Oc1c(Cl)cc(Cl)cc1C=Nc1ccc(Nc2ccccc2)cc1` [MitoBloCK-6], for which the IC50 on ALR turned out to be 0.7 µM; on Erv1, 0.9 µM; against Erv2, 1.4 µM.
